From patent US20170022171A1, “2,5-DISUBSTITUTED CYCLOPENTANECARBOXYLIC ACIDS AND THEIR USE” (Bayer Pharma Aktiengesellschaft, priority 2014, published 2017) come the findings set out here.

T1 sequence (P39900 106-470): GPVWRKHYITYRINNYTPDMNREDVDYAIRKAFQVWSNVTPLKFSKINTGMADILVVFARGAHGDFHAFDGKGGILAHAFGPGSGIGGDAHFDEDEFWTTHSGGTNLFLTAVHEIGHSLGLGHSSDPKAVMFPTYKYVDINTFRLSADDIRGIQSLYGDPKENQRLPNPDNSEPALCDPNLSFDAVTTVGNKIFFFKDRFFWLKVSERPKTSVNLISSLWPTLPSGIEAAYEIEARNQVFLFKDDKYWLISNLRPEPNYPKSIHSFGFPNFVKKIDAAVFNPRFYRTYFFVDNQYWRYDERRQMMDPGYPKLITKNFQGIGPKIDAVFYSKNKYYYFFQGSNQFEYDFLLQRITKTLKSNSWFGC

The test addresses T1, human macrophage elastase (HME/hMMP-12) (Homo sapiens, UniProt P39900).
T1 construct: 0.5 nM HME; purchased R&D Systems 917-MP
Kind of test: In vitro HME inhibition test (standard or high-sensitivity). The format is biochemical. The note with it: in some cases mean values. The protocol:
The potency of the compounds according to the invention with respect to HME (MMP-12) is determined in an in vitro inhibition test. The HME-mediated amidolytic cleavage of a suitable peptide substrate leads to an increase in fluorescent light therein. The signal intensity of the fluorescent light is directly proportional to the enzyme activity. The active concentration of a test compound at which half the enzyme is inhibited (50% signal intensity of the fluorescent light) is reported as the IC50 value.
In a 384 hole microtiter plate, in a total test volume of 41 the test buffer (0.1 M HEPES pH 7.4, 0.15 M NaCl, 0.03 M CaCl2, 0.004 mM ZnCl2, 0.02 M EDTA, 0.005% Brij®), the enzyme (0.5 nM HME; from R&D Systems, 917-MP, autocatalytic activation according to the manufacturer's instructions) and the intramolecularly quenched substrate [5 μM Mca-Pro-Leu-Gly-Leu-Glu-Glu-Ala-Dap(Dnp)-NH2; Bachem, M-2670] are incubated in the absence and presence of the test substance (as a solution in DMSO) at 37° C. for two hours. The fluorescence intensity of the test mixtures is measured (excitation […], emission 393 nm). The IC50 values are ascertained by plotting the fluorescent light intensity against the active ingredient concentration.
In this case, an enzyme concentration ten times lower is used (final concentration, for example, 0.05 nM) in order to achieve an elevated test sensitivity. The incubation period chosen for the test is correspondingly longer (for example 16 hours).
Usually IC50 stands for the concentration at which inhibition is half-maximal. For the molecule `O=C(O)[C@H]1[C@H](Cn2nnc3ccc(C(F)(F)F)cc3c2=O)CC[C@@H]1C(=O)c1ccc(SCCc2ccccc2)cc1` (racemic) [Example 82, (+/−)-(1RS,2SR,5RS)-2-{[4-Oxo-6-(trifluoromethyl)-1,2,3-benzotriazin-3(4H)-yl]methyl}-5-{4-[(2-phenylethyl)sulphanyl]benzoyl}cyclopentanecarboxylic acid], inhibition was half-maximal at 0.12 nM (IC50).

`Cc1ccc2nnn(C[C@H]3CC[C@@H](C(=O)c4ccc(OCc5ccc(F)cc5)cc4)[C@@H]3C(=O)O)c(=O)c2c1` (single isomer, unassigned) [Example 95, (+)-(1RS,2RS,5SR)-2-{4-[(4-Fluorobenzyl)oxy]benzoyl}-5-[(6-methyl-4-oxo-1,2,3-benzotriazin-3(4H)-yl)methyl]cyclopentanecarboxylic acid] registered an IC50 of 0.025 nM.

Regarding `O=C(O)[C@H]1[C@H](Cn2nnc3ccc(C(F)(F)F)cc3c2=O)CC[C@@H]1C(=O)c1ccc(OCc2ccc(Cl)cc2)cc1` (racemic) [Example 24, (+/−)-(1RS,2RS,5SR)-2-{4-[(4-Chlorobenzyl)oxy]benzoyl}-5-{[4-oxo-6-(trifluoromethyl)-1,2,3-benzotriazin-3(4H)-yl]methyl}cyclopentanecarboxylic acid], the IC50 is 0.015 nM. This IC50 is about 1.7-fold lower than that of the molecule before.

For `CCCCCCOc1ccc(C(=O)[C@H]2CC[C@@H](Cn3nnc4ccc(C)cc4c3=O)[C@@H]2C(=O)O)cc1` (racemic) [Example 120, (+/−)-(1RS,2RS,5SR)-2-[4-(Hexyloxy)benzoyl]-5-[(6-methyl-4-oxo-1,2,3-benzotriazin-3(4H)-yl)methyl]cyclopentanecarboxylic acid], it took 0.1 nM to reach half-maximal inhibition (IC50).

On to `O=C(O)[C@H]1[C@H](Cn2nnc3ccc(C(F)(F)F)cc3c2=O)CC[C@@H]1C(=O)c1ccc(OCC2CCC2)cc1` (racemic) [Example 46, (+/−)-(1RS,2RS,5SR)-2-[4-(Cyclobutylmethoxy)benzoyl]-5-{[4-oxo-6-(trifluoromethyl)-1,2,3-benzotriazin-3(4H)-yl]methyl}cyclopentanecarboxylic acid], for which half-maximal inhibition (IC50) was put at 0.034 nM.

For the molecule `CCCCCOc1ccc(C(=O)[C@@H]2CC[C@H](Cn3nnc4ccc(C(F)(F)F)cc4c3=O)[C@H]2C(=O)O)cc1` (single isomer, unassigned) [Example 65, (−)-(1RS,2SR,5RS)-2-{[4-Oxo-6-(trifluoromethyl)-1,2,3-benzotriazin-3(4H)-yl]methyl}-5-[4-(pentyloxy)benzoyl]cyclopentanecarboxylic acid], the IC50 was determined as 1.2 nM.

Molecule `O=C(O)[C@@H]1[C@@H](Cn2nnc3ccc(C(F)(F)F)cc3c2=O)CC[C@H]1C(=O)c1ccc(OCCC2CCCCC2)cc1` (single isomer, unassigned) [Example 51, (−)-(1RS,2RS,5SR)-2-[4-(2-Cyclohexylethoxy)benzoyl]-5-{[4-oxo-6-(trifluoromethyl)-1,2,3-benzotriazin-3(4H)-yl]methyl}cyclopentanecarboxylic acid] showed a 50% inhibitory concentration (IC50) of 30 nM.

In the case of `O=C(O)[C@@H]1[C@@H](Cn2nnc3ccc(C(F)(F)F)cc3c2=O)CC[C@H]1C(=O)c1ccc(OCCc2ccccc2)cc1` (single isomer, unassigned) [Example 37, (+)-(1RS,2SR,5RS)-2-{[4-Oxo-6-(trifluoromethyl)-1,2,3-benzotriazin-3(4H)-yl]methyl}-5-[4-(2-phenylethoxy)benzoyl]cyclopentanecarboxylic acid], the IC50 was 0.08 nM.

`COC(=O)Nc1cccc(COc2ccc(C(=O)[C@H]3CC[C@@H](Cn4nnc5ccc(C(F)(F)F)cc5c4=O)[C@@H]3C(=O)O)cc2)c1` (stereo in doubt) [Example 30, (+/−)-(1RS,2RS,5SR)-2-{4-({3-[(Methoxycarbonyl)amino]benzyl}oxy)benzoyl}-5-{[4-oxo-6-(trifluoromethyl)-1,2,3-benzotriazin-3(4H)-yl]methyl}cyclopentanecarboxylic acid] displayed a half-maximal inhibitory concentration (IC50) of 0.037 nM.

In the case of `O=C(O)[C@H]1[C@H](Cn2nnc3ccc(C(F)(F)F)cc3c2=O)CC[C@@H]1C(=O)c1ccc(SCc2cccc(Cl)c2)cc1` (racemic) [Example 76, (+/−)-(1RS,2RS,5SR)-2-{4-[(3-Chlorobenzyl)sulphanyl]benzoyl}-5-{[4-oxo-6-(trifluoromethyl)-1,2,3-benzotriazin-3(4H)-yl]methyl}cyclopentanecarboxylic acid], half-maximal inhibition (IC50) was put at 0.1 nM.

Molecule `CCCCCCOc1ccc(C(=O)[C@H]2CC[C@@H](Cn3nnc4ccccc4c3=O)[C@@H]2C(=O)O)cc1` (racemic) [Example 6, (+/−)-(1RS,2RS,5SR)-2-[4-(Hexyloxy)benzoyl]-5-[(4-oxo-1,2,3-benzotriazin-3(4H)-yl)methyl]cyclopentanecarboxylic acid] gave an IC50 of 0.17 nM.

Molecule `O=C(O)[C@@H]1[C@@H](Cn2nnc3ccc(C(F)(F)F)cc3c2=O)CC[C@H]1C(=O)c1ccc(OCc2ccc(Cl)cc2)cc1` (single isomer, unassigned) [Example 26, (−)-(1RS,2RS,5SR)-2-{4-[(4-Chlorobenzyl)oxy]benzoyl}-5-{[4-oxo-6-(trifluoromethyl)-1,2,3-benzotriazin-3(4H)-yl]methyl}cyclopentanecarboxylic acid] yielded a 50% inhibitory concentration (IC50) of 1 nM.

The molecule `O=C(O)[C@H]1[C@H](Cn2nnc3ccc(C(F)(F)F)cc3c2=O)CC[C@@H]1C(=O)c1ccc(OCCc2ccccc2)cc1` (racemic) [Example 36, (+/−)-(1RS,2SR,5RS)-2-{[4-Oxo-6-(trifluoromethyl)-1,2,3-benzotriazin-3(4H)-yl]methyl}-5-[4-(2-phenylethoxy)benzoyl]cyclopentanecarboxylic acid] registered an IC50 of 0.13 nM.

`CCCCCOc1ccc(C(=O)[C@@H]2CC[C@H](Cn3nnc4ccc(C)cc4c3=O)[C@H]2C(=O)O)cc1` (single isomer, unassigned) [Example 125, (−)-(1RS,2SR,5RS)-2-[(6-Methyl-4-oxo-1,2,3-benzotriazin-3(4H)-yl)methyl]-5-[4-(pentyloxy)benzoyl]cyclopentanecarboxylic acid] registered an IC50 of 6.7 nM.

In turn, `Cc1ccc2nnn(C[C@@H]3CC[C@H](C(=O)c4ccc(OCCCc5ccccc5)cc4)[C@H]3C(=O)O)c(=O)c2c1` (racemic) [Example 115, (+/−)-(1RS,2SR,5RS)-2-[(6-Methyl-4-oxo-1,2,3-benzotriazin-3(4H)-yl)methyl]-5-[4-(3-phenylpropoxy)benzoyl]cyclopentanecarboxylic acid] registered a concentration for half-maximal inhibition (IC50) of 0.13 nM.

On to `Cc1ccc2nnn(C[C@H]3CC[C@@H](C(=O)c4ccc(OCc5cccc(C(F)(F)F)c5)cc4)[C@@H]3C(=O)O)c(=O)c2c1` (single isomer, unassigned) [Example 102, (−)-(1RS,2SR,5RS)-2-[(6-Methyl-4-oxo-1,2,3-benzotriazin-3(4H)-yl)methyl]-5-(4-{[3-(trifluoromethyl)benzyl]oxy}benzoyl)cyclopentanecarboxylic acid], for which 8.7 nM corresponded to half-maximal inhibition (IC50).

In the case of `CCCCCOc1ccc(C(=O)[C@H]2CC[C@@H](Cn3nnc4ccc(C(F)(F)F)cc4c3=O)[C@@H]2C(=O)O)cc1` (racemic) [Example 63, (+/−)-(1RS,2SR,5RS)-2-{[4-Oxo-6-(trifluoromethyl)-1,2,3-benzotriazin-3(4H)-yl]methyl}-5-[4-(pentyloxy)benzoyl]cyclopentanecarboxylic acid], the IC50 was found to be 0.015 nM.
